Key:
[1] = tested on: thrombin-induced aggregation of mouse platelets; assay: Platelet aggregation induced by thrombin; assay type: cell-based; settings: thrombin 0.025 U/ml; pretreated 37° C. 15 minutes; vs vehicle; FIG. 2C
Experimental: (§1) Platelets were collected from the abdominal vein of mice (6-8 weeks of age) using a syringe pretreated with a citrate-dextrose solution (ACD, Sigma). After centrifugation at 300×g at room temperature for 20 minutes to obtain platelet-rich plasma (PRP), 0.5 μM PGE1 was added to the plasma isolated from red blood cells, followed by re-centrifugation at 700×g for 4 minutes. The precipitated platelets were washed with HEPES-Tyrode buffer (5 mM HEPES/NaOH, pH 7.3, 5 mM glucose, 136 mM NaCl, 12 mM NaHCO3, 2.7 mM KCl) containing 10% ACD, followed by centrifugation at 700×g for 5 min. The precipitated platelets were adjusted to a concentration of 3×10^8 cells/mL in HEPES-Tyrode buffer and used in this experiment.
(§2) Mouse platelets immersed in HEPES-Tyrode buffer at a concentration of 3×10^8 cells/mL were pre-treated with a vehicle (distilled water), 1,000 μM FOS, 3′-fucosyllactose, and various concentrations (300 to 1,000 μM) of 2′-fucosyllactose at 37° C. for 15 minutes, and were then activated awith CRP, collagen, thrombin, and thromboxane A2 analogues in a platelet aggregation system. Platelet aggregation was induced at a rate of 1,000 rpm at 37° C. and then measured in a platelet aggregation meter (Chrono-log Corp, Havertown, PA). […]

[2] = tested on: carotid artery thrombosis; assay: FeCl3-induced carotid artery thrombosis mouse model, blood flow measurement; assay type: in vivo; settings: 7 days, FeCl3 (10%) mouse model, vehicle 7.47 minutes
Experimental: Male C57BL/6 mice (6-8 weeks old) used in the experiment were purchased from Dooyeol Biotech Co., Ltd., were acclimatized for a predetermined period at 23±1° C. and 56% relative humidity while a general diet was provided thereto for 1 week, and were then used for the experiment. In the following, animal experiments were performed in accordance with the guide for the animal study protocols approved by the Korea Institute of Oriental Medicine Institutional Animal Care and Use Committee (approval number: 20-058). FeCl3 (10%) was used to establish a thrombosis-induced mouse model. Mice were orally administered with 2′-fucosyllactose (500, 1,000 mg/kg BW), 3-fucosyllactose (1,000 mg/kg BW), or ASA (100 mg/kg BW) for 7 days. 2 hours after the last administration, the mice were anesthetized with 2% isoflurane, the left carotid artery was isolated from each mouse, and filter paper (2 mm in diameter) soaked with FeCl3 (10%) was placed on the carotid artery for 2 minutes to induce thrombosis. Blood flow was measured using a blood flow meter (AD meter).

platelet αIIbβ3 integrin = assay: Flow cytometry of platelet αIIbβ3 integrin activation after CRP activation; assay type: cell-based, mouse; settings: 300 to 1,000 μM, concentration-dependent; 0.15 μg/ml CRP 5 minutes; vs vehicle; FIG. 3B
Experimental: as §1
(§3) The activity of each of platelet P-selectin and αIIbβ3, which are known biomarkers of platelet activity, was measured using a flow cytometer (Gallios, Beckman Coulter). Mouse platelets were pretreated with a vehicle (distilled water), 1,000 μM FOS and 3-fucosyllactose, and various concentrations (300 to 1,000 μM) of 2′-fucosyllactose at 37° C. for 15 minutes, and were then activated with 0.15 ug/ml CRP at 37° C. for 5 minutes, after which the activity thereof was measured using P-selectin and αIIbβ3 antibodies.
(§4) The mechanism of inhibition of platelet activation by HMOs was determined. […]

[3] = tested on: collagen-induced aggregation of mouse platelets; assay: Platelet aggregation induced by collagen; assay type: cell-based; settings: collagen 0.5 μg/ml; 2′-fucosyllactose 300 to 1,000 μM, FOS and 3-fucosyllactose 1,000 μM; pretreated 37° C. 15 minutes; vs vehicle; FIG. 2B
[4] = tested on: CRP-induced aggregation of mouse platelets; assay: Platelet aggregation induced by CRP; assay type: cell-based; settings: CRP 0.15 μg/ml; 2′-fucosyllactose 300 to 1,000 μM, FOS and 3-fucosyllactose 1,000 μM; pretreated 37° C. 15 minutes; vs vehicle; FIG. 2A
HepG2 cells = assay: HMO cytotoxicity test (CCK assay); assay type: cell-based; settings: 24 hours treatment, FIG. 4
Experimental: In this experimental example, the cytotoxicity of HMOs was evaluated by CCK assay (Oh, Y. C.; Jeong, Y. H.; Pak, M. E.; Go, Y., Banhasasim-Tang Attenuates Lipopolysaccharide-Induced Cognitive Impairment by Suppressing Neuroinflammation in Mice. Nutrients 2020, 12, (7)). No protocol for measuring cytotoxicity to platelets has been established, so HepG2 cells were pretreated with an HMO (2′-fucosyllactose or 3-fucosyllactose) in a concentration-dependent manner. After 24 hours, each well was treated with a cell-counting kit solution (Dojindo Molecular Technologies, Inc.), and further incubated for 1 hour, and then absorbance was measured at a wavelength of 450 nm using a microplate reader.

[5] = tested on: thromboxane A2 analogue-induced aggregation of mouse platelets; assay: Platelet aggregation induced by thromboxane A2 analogue (U46619); assay type: cell-based; settings: thromboxane A2 analogue 3 μM; pretreated 37° C. 15 minutes; vs vehicle; FIG. 2D
Experimental: as §1, §2

[6] = tested on: P-selectin of mouse platelet α-granule; assay: Flow cytometry of platelet P-selectin exposure after CRP activation; assay type: cell-based; settings: 300 to 1,000 μM, concentration-dependent; 0.15 μg/ml CRP 5 minutes; vs vehicle; FIG. 3A
Experimental: as §1, §3, §4

Compound	inhibition of platelet aggregation induced by thrombin [1]	average carotid artery occlusion time ([2]; 500 mg/kg BW oral)	average carotid artery occlusion time ([2]; 1,000 mg/kg BW oral)	inhibition of activation of platelet αIIbβ3 integrin (platelet αIIbβ3 integrin)	inhibition of platelet aggregation induced by collagen [3]	inhibition of platelet aggregation induced by CRP [4]	cell death of HepG2 (cell viability, CCK assay) (HepG2 cells)	inhibition of platelet aggregation induced by thromboxane A2 analogue [5]	inhibition of activation of P-selectin of mouse platelet α-granule [6]	carotid artery occlusion time ([2]; 100 mg/kg BW oral, positive control)
2′-fucosyllactose	did not exhibit an inhibitory effect	11.79 min	14.52 min	significantly inhibit	significantly inhibited	significantly inhibited	not observed	did not exhibit an inhibitory effect	significantly inhibit	
3-fucosyllactose [reference compound]			8.18 min		not significantly inhibited	not significantly inhibited	not observed			
CC(=O)Oc1ccccc1C(=O)O [aspirin, reference compound]										18.05 min
fructooligosaccharide [FOS]					not significantly inhibited	not significantly inhibited				

Reference: patent publication US11819510B2, “Food composition for ameliorating cerebrovascular diseases containing 2′- fucosyllactose and pharmaceutical composition for preventing or treating cerebrovascular diseases containing 2′-fucosyllactose” (Advanced Protein Technologies Corp., priority 2020, dated 2023)
